Patent publication US11364248B2 (AMGEN INC., priority 2017, dated 2022)
Read-outs that look alike come from different tables or passages of the source.

Experiments:
[1] = tested on: OPM-2; experiment: Cell Viability Assay (OPM-2 10 FBS); type: cell-based, human; conditions: OPM-2 cells, CellTiter-Glo, read-out: OPM-2 10% FBS IC50 IP
How it was run: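 Compounds, serially diluted, were left on OPM-2 cells (3000 cells/well, 10% FBS RPMI 1640) for 16 h at 37° C. under 5% CO2.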

[2] = target: Mcl-1/Bim interaction (Homo sapiens (Human), UniProt Q07820); experiment: Cell Free Mcl-1: Bim Affinity Assay (Mcl-1 HTRF); type: binding; conditions: TR-FRET, recombinant human Mcl-1(171-327), biotin-Bim(51-76); read-out: Mel-1 HTRF IC50
Sequence of Mcl-1/Bim interaction (Q07820 171-327): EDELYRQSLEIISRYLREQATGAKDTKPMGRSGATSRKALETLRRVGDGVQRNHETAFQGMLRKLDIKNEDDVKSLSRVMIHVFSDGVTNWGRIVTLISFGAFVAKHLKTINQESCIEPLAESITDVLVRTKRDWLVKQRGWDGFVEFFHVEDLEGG
Procedure: Cell Free Mcl-1: Bim Affinity Assay (Mcl-1 HTRF)
The inhibition of the Mcl-1/Bim interaction was measured using a time-resolved fluorescence resonance energy transfer (TR-FRET) assay. The recombinant human Mcl-1 (C-terminally 6×His tagged Mcl-1 containing residues 171-327) was generated at Amgen Inc (Thousand Oaks, Calif.). A biotinylated peptide derived from human Bim (residues 51-76) was purchased from CPC Scientific (San Jose, Calif.). The TR-FRET assay was conducted in a 384-well white OptiPlate™ (PerkinElmer, Waltham, Mass.) in a total volume of 40 μL. The reaction mixture contained 0.1 nM Mcl-1(171-327), 0.05 nM biotin-Bim(51-76), 0.05 nM LANCER Eu-W1024 Anti-6×His (PerkinElmer), 0.072 nM Streptavidin-Xlent (Cisbio, Bedford, Mass.), and serially diluted test compounds in the binding buffer of 20 mM Hepes, pH 7.5, 150 mM NaCl, 0.016 mM Brij©35, and 1 mM dithiothreitol. Test compounds were pre-incubated with Mcl-1(171-327) and biotin-Bim (51-76) for 60 min before addition of the detection mixture (LANCE Eu-W1024 Anti-6×His and Streptavidin-Xlent). The reaction plates were further incubated overnight and then were read on an Envision® multimode reader (PerkinElmer). Fluorescence signals were measured at 620 nm (40-nm bandwidth) and 665 nm (7.5-nm bandwidth) with a 60 μs delay after excitation at 320 nm (75-nm bandwidth). The signal ratio at 665/620 nm corresponded to the Mcl-1/Bim interaction and was used in all data analyses. The IC50 values of test compounds were determined from duplicate data by analyzing competition curves using a four-parameter sigmoidal model in GraphPad Prism (GraphPad Software, San Diego, Calif.) or in Genedata Screener® (Genedata, Basel, Switzerland).

**Q.** With C[C@@H]1[C@@H](C)CCC[C@H]([C@H]2O[C@H]3CNC[C@H]3O2)[C@@H]2CC[C@H]2CN2C[C@@]3(CCCc4cc(Cl)ccc43)COc3ccc(cc32)C(=O)NS1(=O)=O (stereo in doubt) [Example 35, (1S,3′R,6′R,7′R,11′S,12′R)-6-chloro-11′,12′-dimethyl-7′-((2r,3aR,6aS)-tetrahydro-3aH-[1,3]dioxolo[4,5-c]pyrrol-2-yl)-3,4-dihydro-2H,15′H-spiro[naphthalene-1,22′-[20]oxa[13]thia[1,14]diazatetracyclo [14.7.2.0~3,6~.0~19,24~]pentacosa[16,18,24]trien]-15′-one 13′,13′-dioxide] as the molecule, how does the IC50 ([1]; 16 h) read?
**A.** Its IC50 is 0.304 µM.

**Q.** What about the IC50 [2] of the same molecule?
**A.** The IC50 was 0.000829 µM.

**Q.** With CC[C@@H]1CCCC[C@H]([C@H]2OC[C@@H](N(C)C)CO2)C2CC[C@H]2CN2C[C@@]3(CCCc4cc(Cl)ccc43)COc3ccc(cc32)C(=O)NS1(=O)=O (stereo in doubt) [Example 73, (1S,3′R,6′S,7′S,12′R)-6-chloro-7′-(cis-5-(dimethylamino)-1,3-dioxan-2-yl)-12′-ethyl-3,4-dihydro-2H,15′H-spiro[naphthalene-1,22′-[20]oxa[13]thia[1,14]diazatetracyclo [14.7.2.0~3,6~.0~19,24~]pentacosa[16,18,24]trien]-15′-one 13′,13′-dioxide] as the molecule, how does the IC50 ([1]; 16 h) read?
**A.** Its IC50 is 0.915 µM.

**Q.** What about the IC50 [2] of the same molecule?
**A.** The IC50 was 0.000657 µM.

**Q.** Which IC50 ([1]; 16 h) does the source give for CC[C@@H]1CCCC[C@H]([C@H]2OC[C@@H](N(C)C)CO2)C2CC[C@H]2CN2C[C@@]3(CCCc4cc(Cl)ccc43)COc3ccc(cc32)C(=O)NS1(=O)=O (stereo in doubt) [Example 74, (1S,3′R,6′S,7′S,12′R)-6-chloro-7′-(cis-5-(dimethylamino)-1,3-dioxan-2-yl)-12′-ethyl-3,4-dihydro-2H,15′H-spiro[naphthalene-1,22′-[20]oxa[13]thia[1,14]diazatetracyclo [14.7.2.0~3,6~.0~19,24~]pentacosa[16,18,24]trien]-15′-one 13′,13′-dioxide] here?
**A.** The IC50 was 0.108 µM.

**Q.** And the IC50 [2]?
**A.** The IC50 was 0.000196 µM.

**Q.** Which IC50 ([1]; Homo sapiens, OPM-2, 16 h) does the source give for C[C@H]1CCC[C@H]([C@H]2OC[C@@H](N(C)C)CO2)[C@@H]2CC[C@H]2CN2C[C@@]3(CCCc4cc(Cl)ccc43)COc3ccc(cc32)C(=O)NS(=O)(=O)C1 (stereo in doubt) [Example 77] here?
**A.** The IC50 was 0.595 µM.

**Q.** What about the IC50 [2] of the same molecule?
**A.** The IC50 was 0.00265 µM.

**Q.** C[C@H]1CCC[C@H]([C@H]2OC[C@@H](N(C)C)CO2)[C@@H]2CC[C@H]2CN2C[C@@]3(CCCc4cc(Cl)ccc43)COc3ccc(cc32)C(=O)NS(=O)(=O)C1 (stereo in doubt) [Example 78] was tested. Which IC50 ([1]; 16 h) did it give?
**A.** The IC50 was 0.599 µM.

**Q.** What about the IC50 [2] of the same molecule?
**A.** Its IC50 is 0.00281 µM.

**Q.** How did the IC50 ([1]; 16 h) turn out when C[C@@H]1[C@@H](C)CCC[C@H](C2OCCO2)[C@@H]2CC[C@H]2CN2C[C@@]3(CCCc4cc(Cl)ccc43)COc3ccc(cc32)C(=O)NS1(=O)=O [Example 3, (1S,3′R,6′R,7′S,11′S,12′R)-6-chloro-7′-(1,3-dioxolan-2-yl)-11′,12′-dimethyl-3,4-dihydro-2H,15′H-spiro[naphthalene-1,22′-[20]oxa[13]thia[1,14]diazatetracyclo [14.7.2.0~3,6~.0~19,24~]pentacosa[16,18,24]trien]-15′-one 13′,13′-dioxide] was run?
**A.** Its IC50 is 0.926 µM.

**Q.** And the IC50 [2]?
**A.** The IC50 was 0.00128 µM.

**Q.** What does the source list for C[C@@H]1[C@@H](C)CCC[C@H](C2OCCO2)[C@@H]2CC[C@H]2CN2C[C@@]3(CCCc4cc(Cl)ccc43)COc3ccc(cc32)C(=O)NS1(=O)=O [Example 4, (1S,3′R,6′R,7′S,11′S,12′R)-6-chloro-7′-(1,3-dioxolan-2-yl)-11′,12′-dimethyl-3,4-dihydro-2H,15′H-spiro[naphthalene-1,22′-[20]oxa[13]thia[1,14]diazatetracyclo [14.7.2.0~3,6~.0~19,24~]pentacosa[16,18,24]trien]-15′-one 13′,13′-dioxide]?
**A.** IC50 ([1]; 16 h): 2.15 µM; IC50 [2]: 0.00192 µM

**Q.** Which IC50 ([1]; 16 h) does the source give for C[C@@H]1[C@@H](C)CCC[C@H](C2OCCCO2)[C@@H]2CC[C@H]2CN2C[C@@]3(CCCc4cc(Cl)ccc43)COc3ccc(cc32)C(=O)NS1(=O)=O [Example 7, (1S,3′R,6′R,7′S,11′S,12′R)-6-chloro-7′-(1,3-dioxan-2-yl)-11′,12′-dimethyl-3,4-dihydro-2H,15′H-spiro[naphthalene-1,22′-[20]oxa[13]thia[1,14]diazatetracyclo [14.7.2.0~3,6~.0~19,24~]pentacosa[16,18,24]trien]-15′-one 13′,13′-dioxide] here?
**A.** The IC50 was 1.07 µM.

**Q.** And the IC50 [2]?
**A.** The IC50 was 0.000949 µM.

**Q.** With C[C@@H]1[C@@H](C)CCC[C@H](C2OCCCO2)[C@@H]2CC[C@H]2CN2C[C@@]3(CCCc4cc(Cl)ccc43)COc3ccc(cc32)C(=O)NS1(=O)=O [Example 8, (1S,3′R,6′R,7′S,11′S,12′R)-6-chloro-7′-(1,3-dioxan-2-yl)-11′,12′-dimethyl-3,4-dihydro-2H,15′H-spiro[naphthalene-1,22′-[20]oxa[13]thia[1,14]diazatetracyclo [14.7.2.0~3,6~.0~19,24~]pentacosa[16,18,24]trien]-15′-one 13′,13′-dioxide] as the molecule, how does the IC50 ([1]; 16 h) read?
**A.** The IC50 was 7.36 µM.

**Q.** What about the IC50 [2] of the same molecule?
**A.** The IC50 was 0.00167 µM.

**Q.** What does the source list for C[C@@H]1[C@@H](C)CCC[C@H]([C@H]2OC[C@H](O)CO2)[C@@H]2CC[C@H]2CN2C[C@@]3(CCCc4cc(Cl)ccc43)COc3ccc(cc32)C(=O)NS1(=O)=O [Example 11, (1S,3′R,6′R,7′S,11′S,12′R)-6-chloro-7′-(trans-5-hydroxy-1,3-dioxan-2-yl)-11′,12′-dimethyl-3,4-dihydro-2H,15′H-spiro[naphthalene-1,22′-[20]oxa[13]thia[1,14]diazatetracyclo [14.7.2.0~3,6~.0~19,24~]pentacosa[16,18,24]trien]-15′-one 13′,13′-dioxide]?
**A.** IC50 ([1]; 16 h): 0.26 µM; IC50 [2]: 0.00029 µM

**Q.** Which IC50 ([1]; 16 h) does the source give for C[C@@H]1[C@@H](C)CCC[C@H]([C@H]2OC[C@H](O)CO2)[C@@H]2CC[C@H]2CN2C[C@@]3(CCCc4cc(Cl)ccc43)COc3ccc(cc32)C(=O)NS1(=O)=O [Example 12, (1S,3′R,6′R,7′S,11′S,12′R)-6-chloro-7′-(trans-5-hydroxy-1,3-dioxan-2-yl)-11′,12′-dimethyl-3,4-dihydro-2H,15′H-spiro[naphthalene-1,22′-[20]oxa[13]thia[1,14]diazatetracyclo [14.7.2.0~3,6~.0~19,24~]pentacosa[16,18,24]trien]-15′-one 13′,13′-dioxide] here?
**A.** Its IC50 is 0.668 µM.

**Q.** And the IC50 [2]?
**A.** Its IC50 is 0.000382 µM.

**Q.** How did the IC50 ([1]; 16 h) turn out when C[C@@H]1[C@@H](C)CCC[C@H]([C@H]2OC[C@H](O)CO2)[C@@H]2CC[C@H]2CN2C[C@@]3(CCCc4cc(Cl)ccc43)COc3ccc(cc32)C(=O)NS1(=O)=O [Example 13, (1S,3′R,6′R,7′S,11′S,12′R)-6-chloro-7′-(trans-5-hydroxy-1,3-dioxan-2-yl)-11′,12′-dimethyl-3,4-dihydro-2H,15′H-spiro[naphthalene-1,22′-[20]oxa[13]thia[1,14]diazatetracyclo [14.7.2.0~3,6~.0~19,24~]pentacosa[16,18,24]trien]-15′-one 13′,13′-dioxide] was run?
**A.** Its IC50 is 0.635 µM.

**Q.** What about the IC50 [2] of the same molecule?
**A.** The IC50 was 0.000555 µM.

**Q.** For C[C@@H]1[C@@H](C)CCC[C@H]([C@H]2OC[C@H](O)CO2)[C@@H]2CC[C@H]2CN2C[C@@]3(CCCc4cc(Cl)ccc43)COc3ccc(cc32)C(=O)NS1(=O)=O [Example 14, (1S,3′R,6′R,7′S,11′S,12′R)-6-chloro-7′-(trans-5-hydroxy-1,3-dioxan-2-yl)-11′,12′-dimethyl-3,4-dihydro-2H,15′H-spiro[naphthalene-1,22′-[20]oxa[13]thia[1,14]diazatetracyclo [14.7.2.0~3,6~.0~19,24~]pentacosa[16,18,24]trien]-15′-one 13′,13′-dioxide], which IC50 ([1]; 16 h) is on record?
**A.** The IC50 was 1.99 µM.

**Q.** And the IC50 [2]?
**A.** Its IC50 is 0.000765 µM.

**Q.** Which results are given for C[C@@H]1[C@@H](C)CCC[C@H]([C@H]2OC[C@@H](N3CCCC3)CO2)[C@@H]2CC[C@H]2CN2C[C@@]3(CCCc4cc(Cl)ccc43)COc3ccc(cc32)C(=O)NS1(=O)=O [Example 19, (1S,3′R,6′R,7′S,11′S,12′R)-6-chloro-11′,12′-dimethyl-7′-(cis-5-(1-pyrrolidinyl)-1,3-dioxan-2-yl)-3,4-dihydro-2H,15′H-spiro[naphthalene-1,22′-[20]oxa[13]thia[1,14]diazatetracyclo [14.7.2.0~3,6~.0~19,24~]pentacosa[16,18,24]trien]-15′-one 13′,13′-dioxide]?
**A.** IC50 ([1]; 16 h): 0.527 µM; IC50 [2]: 0.00105 µM

**Q.** C[C@@H]1[C@@H](C)CCC[C@H]([C@H]2OC[C@@H](N3CCCC3)CO2)[C@@H]2CC[C@H]2CN2C[C@@]3(CCCc4cc(Cl)ccc43)COc3ccc(cc32)C(=O)NS1(=O)=O [Example 22, (1S,3′R,6′R,7′S,11′S,12′R)-6-chloro-11′,12′-dimethyl-7′-(cis-5-(1-pyrrolidinyl)-1,3-dioxan-2-yl)-3,4-dihydro-2H,15′H-spiro[naphthalene-1,22′-[20]oxa[13]thia[1,14]diazatetracyclo [14.7.2.0~3,6~.0~19,24~]pentacosa[16,18,24]trien]-15′-one 13′,13′-dioxide] was tested. Which IC50 ([1]; 16 h) did it give?
**A.** The IC50 was 0.065 µM.

**Q.** And the IC50 [2]?
**A.** Its IC50 is 0.000444 µM.
